# Reference: publication PMC11490426, “Structure-activity relationship of amino acid analogs to probe the binding pocket of sodium-coupled neutral amino acid transporter SNAT2” (Amino Acids, 2024)
# Counter-ions that a name gives are not always drawn.
# How the values were obtained:
# SNAT2 [1] = target: T1, SNAT2 (Homo sapiens, UniProt Q96QD8); assay: Inhibition of SNAT2-mediated 3H-glycine uptake in hyperosmotically treated PC-3 cells; format: cell-based
# T1 construct: hyperosmotically treated PC-3 cells, known to upregulate SNAT2; endogenous in cells; host or cells: PC-3 prostate cells exposed to hyperosmotic medium for 24 h
# T1 sequence (Q96QD8 1-506): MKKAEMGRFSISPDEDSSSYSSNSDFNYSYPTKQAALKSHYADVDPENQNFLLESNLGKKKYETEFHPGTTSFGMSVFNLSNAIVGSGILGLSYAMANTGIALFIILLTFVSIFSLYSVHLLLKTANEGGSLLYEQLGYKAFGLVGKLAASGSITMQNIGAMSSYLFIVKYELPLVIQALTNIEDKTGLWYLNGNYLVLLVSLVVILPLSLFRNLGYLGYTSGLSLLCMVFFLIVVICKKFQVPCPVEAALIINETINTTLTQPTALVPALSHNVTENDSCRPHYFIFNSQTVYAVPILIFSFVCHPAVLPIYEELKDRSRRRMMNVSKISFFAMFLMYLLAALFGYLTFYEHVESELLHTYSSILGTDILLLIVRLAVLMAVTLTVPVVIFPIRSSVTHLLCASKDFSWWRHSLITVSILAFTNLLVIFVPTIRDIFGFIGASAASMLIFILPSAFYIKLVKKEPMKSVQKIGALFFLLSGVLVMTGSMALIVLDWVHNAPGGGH
# Protocol: Where Y is the % uptake, X is the concentration of the inhibitor, Top and Bottom are the top and bottom plateau respectively, and IC50 is the half maximal inhibitory concentration. These studies were performed in at least 3 independent cell passages (n = 3) and a curve was defined for each independent passage. However, for each compound, the top and bottom were constrained to be the same amongst the different cell passages.
# SNAT2 [2] = target: T1, SNAT2; assay: FLIPR membrane potential (FMP) assay in PC-3 cells; format: cell-based; conditions: hyperosmotically treated PC-3 cells
# Protocol: PC-3 cells exposed to hyperosmotic media for 24 h were used to identify SNAT2 substrates in the FMP assay. The media was aspirated, and the cells were preincubated in HBSS + for 10 min at 37 °C and 220 rpm. Then the buffer was aspirated, and cells were then incubated in 50 µL HBSS + containing 0.55 mg ⋅ mL^− 1 (1x) FMP probe (Blue component A from Molecular Devices, San Jose, CA, USA) for 30 min at 37 °C and 220 rpm. […] First, the baseline was measured for 30 s by measuring each well every 3 s. The plate was then removed from the reader and 50 µL of substrate solutions containing 0.55 mg ⋅ mL^− 1 FMP probe was added. These solutions were prepared by mixing equal parts solution containing 2x FMP probe and solutions containing 4x the final concentration of substrate. […] Following this, the baseline of the next column was measured and followed the same procedure as just described.
# For the FMP data, the baseline was defined as the mean fluorescence of the first data point before substrate addition. The baseline of each well was then subtracted from the data point to get the ΔF. Plotting ΔF as a function of time and calculating the area under the curve (AUC) after substrate addition was used as a measure of SNAT2 activity.
# SNAT2 [3] = target: T1, SNAT2; assay: Intracellular amino acids and analogs quantified by OPA derivatization and HPLC-Fl after uptake in PC-3 cells; format: cell-based; conditions: 0.4 mM compound, 30 min uptake, pH 7.4
# Protocol: Derivatization of AAs and analogs using o-phthalaldehyde (OPA) and 2-mercaptoethanol (2-ME) to make fluorescent derivatives was used to measure the intracellular amounts of AAs and analogs following uptake in hyperosmotically treated PC-3 cells. Before starting the experiment, the medium was aspirated, and the cells were preincubated in HBSS + for 15 min at 37 °C and 220 rpm. The cells were then incubated with 500 µL HBSS+ (background) or HBSS + containing AAs or analogs at given concentrations for 30 min at 37 °C and 220 rpm. After aspirating the donor solutions, the cells were washed thrice with 500 µL of ice-cold PBS while keeping the cells on ice. 200 µL of ice-cold 1x-trypsin was added to each well and allowed to distribute for 20–30 min while keeping the cells on ice. The plate was then transferred to an incubating microplate shaker at 37 °C and 220 rpm for about 8 min or until the cells had detached. 300 µL of ice-cold PBS was added to each well to resuspend the cells and transfer them to centrifuge tubes. The cells were centrifuged at 1000 G for 5 min (4 °C), the supernatant was removed, the cells were resuspended in 300 µL ice-cold PBS, and then centrifuged again at 1000 G for 5 min (4 °C). After removing the supernatant, the cell pellet was lysed by adding 100 µL of 80% methanol (20% ultrapure water) and placing the tubes in an ultrasonic bath for 10 min. The tubes were then centrifuged at 15,000 G for 15 min (4 °C) and the resulting supernatant was used for analysis.
# The OPA reagent was prepared by spiking with 2 µL 2-ME per mL of OPA regent and was considered stable for use within one day. 10 µL of the cell samples or standards containing a mixture of the AAs and analogs of interest were placed in HPLC vials with 100 µL inserts. […] The autosampler kept the samples at 10 °C and the pretreatment function was used to automatically mix the samples with 10 µL of the OPA reagent and wait 4 min before loading 2 µL onto a YMC-Triart C18 column (75 × 3.0 mm, 1.9 μm, Mikrolab Aarhus, Viby J, Denmark). […] The fluorescence detector was set to excite at 350 nm and detect at 450 nm.
# The resulting chromatograms were integrated and the area under the curve (AUC) of the standard samples was used to generate standard curves to determine the concentration of AAs and analogs in the cell samples. […] Amino acid levels detected in the background cell samples were subtracted from the other cell samples.
# PC-3 cells = assay: CellTiter-Glo viability assay; format: cell-based, human; conditions: 20 mM, after 10 min of exposure, hyperosmotically treated PC-3 cells
# Protocol: ^3H-glycine uptake in hyperosmotically treated PC-3 cells was performed as previously described (Jakobsen et al. [2023]). 5-minute uptake of 0.5 µCi ⋅ mL^− 1 3H-glycine (11.1 nM) was used, and each uptake was normalized to the uptake obtained in a control situation (31.2 ± 5.7 fmol ⋅ cm^− 2 ⋅ min^− 1) without subtracting the background uptake (2.62 ± 0.67 fmol ⋅ cm^− 2 ⋅ min^− 1). Compounds that inhibited uptake by more than 20% at the highest tested concentrations were tested in the CellTiter-Glo viability assay (Promega, Madison, WI, USA), to rule out that the observed inhibition was not caused by reduced cell viability (Fig. S1 in Supplementary Information SI).
# Fig. S1 Cell viability of hyperosmotically treated PC-3 cells after 10 min incubation with various amino acids and analogs using the CellTiter-Glo assay. […] The plate was placed in a CLARIOstar® Plus plate reader from BMG LABTECH (Ortenberg, Germany) at room temperature and was then shaken for 2 minutes at 220 rpm. Luminescence was measured after 0, 5, 10, and 15 minutes. Background luminescence (obtained from adding CellTiter-Glo reagent to HBSS+ containing wells without cells) was subtracted from the sample luminescence and normalized to control wells only exposed to HBSS+ to determine the % viability. […] Statistically significant differences from the control detected by one-way ANOVA are shown (*: p < 0.05).
# [4] = Stability in aqueous solution by HPLC-UV; format: physicochemical; conditions: 1 mM in ultrapure water, room temperature, over 3 days
# Excerpt: The resulting chromatograms were integrated and the area under the curve (AUC) of the standard samples was used to generate standard curves to determine the concentration of AAs and analogs in the cell samples. The pooled standard curves and example chromatograms can be seen in the SI (Figs. S2, S3). Amino acid levels detected in the background cell samples were subtracted from the other cell samples. L-Alanine benzyl ester only generated a peak with an equal retention time as L-alanine. It was assessed that the addition of OPA reagent increased the hydrolysis of the ester, thus only creating the L-alanine OPA derivative. […] Thus, the L-alanine peak was used to measure the presence of L-alanine benzyl ester in samples.
# Fig. S4 HPLC-UV chromatograms of L-alanine benzyl ester and benzyl alcohol dissolved in ultrapure water. The samples were analyzed using a Waters 2695 HPLC system connected to a Waters 2487 Dual λ Absorbance Detector (Waters Corporation, MA, USA). The peaks were separated using a Sunfire C18 column (4.6 x 150 mm, 3.5 µm, Waters Corporation, MA, USA) at 45 °C and with a 0.7 ml/min flow of 70% mobile phase A (90/10% H2O/MeCN + 0.1% trifluoroacetic acid (TFA)) and 30% mobile phase B (10/90% H2O/MeCN + 0.1% TFA). 10 µL samples were injected and the peaks were detected at 254 nm. […]
smiles,measurement,setting,value
"C[C@H](N)C(=O)OCc1ccccc1 [L-Alanine benzyl ester, L-alanine benzyl ester hydrochloride]",IC50,"SNAT2 [1]; hyperosmotically treated PC-3 cells, 5 min uptake of 11.1 nM 3H-glycine, pH 7.4, read-out: IC50",390 µM
same,inhibition of 3H-glycine uptake at different pH levels,"SNAT2 [1]; pH 6.8, 7.4 and 8.0, 0.4 mM L-alanine benzyl ester or 0.2 mM L-alanine, two-way ANOVA",no significant differences in inhibition at the different pH levels
same,AUC of fluorescence response-time curve,SNAT2 [2]; 5 mM compound,8.1 ± 1.4 10^5 RFU ∙ s
same,AUC of fluorescence response-time curve,SNAT2 [2]; 10 mM compound,-1.4 ± 3.2 10^5 RFU ∙ s
same,"AUC, % of 10 mM L-alanine",SNAT2 [2]; 10 mM compound,-6.6 ± 14%
same,response in the FMP assay (stimulation of SNAT2 activity),SNAT2 [2]; result in words,little or no stimulation of SNAT2 activity
same,fold change of intracellular accumulation in absence vs presence of 10 mM L-glutamine,SNAT2 [3],6.7 fold
same,decrease in cell viability,PC-3 cells,23%
same,stability in aqueous solution,[4],stability was confirmed
